Reference: article PMC12040169 (PLOS Biology, 2025)

Test: in vitro
Settings: human, hela cells, % viability

Point of comparison: CN(C)CCN(Cc1nc2ccccc2[nH]1)Cc1cccs1 [CBK283020], viability at 28.5 h, 10 µM 85.1%. Against it:
- O=C(NCc1ccc2c(c1)OCO2)C1(c2ccccc2)CCCC1 [CBK149530] — higher, 89.8%
- Cc1onc(-c2ccccc2)c1C(=O)NC(=S)Nc1sc2c(c1C#N)CCC2 [CBK267492] — higher, 89.1%
- Cn1cc(-c2nccnc2OCCOc2ccccc2)cn1 [CBK107080] — higher, 94.9%
- CCOC(=O)c1[nH]c2ccccc2c1NS(=O)(=O)c1ccc(Br)cc1 [CBK047409] — higher, 116%
- COc1cc(S(=O)(=O)Oc2ccc(OCc3ccccc3)cc2)ccc1Cl [CBK264132] — higher, 92.2%
- COc1ccc(Sc2cc3n(c(=O)n2)CCc2cc(OC)c(OC)cc2-3)cc1 [CBK291186] — lower, 81.9%
- NC(=O)CN1CCN(CCc2ccccc2)CC1 [CBK126429] — higher, 88.4%
- CC(=O)N1N=C(COc2ccc3c(c2)OCO3)OC1c1ccc(C)cc1 (centres unmarked) [CBK294397] — lower, 83%
- COCCNc1cc(-c2ccc(C(C)=O)s2)ncn1 [CBK090791] — higher, 115%
- COc1cccc(CC(=O)N2CCCC2c2nc3ccccc3[nH]2)c1 (centres unmarked) [CBK283665] — higher, 99.8%
- O=C(NCC1COc2ccccc2O1)c1ccc(-c2ccc(OC(F)(F)F)cc2)nc1 (centres unmarked) [CBK156214] — higher, 88.3%
- Cn1c(=O)c(C(=O)Nc2ccccc2S(N)(=O)=O)c(O)c2ccccc21 [CBK262267] — higher, 85.5%
- CSCCNC(=O)c1coc(COc2ccc3sc(C)nc3c2)n1 [CBK307004] — higher, 99.3%
- CCN1CC2(CCC1=O)CCN(Cc1cccc(C(C)N(C)C)c1)CC2 (centres unmarked) [CBK307250] — higher, 116%
- CCN(CC)C(=O)c1sc2ccccc2c1Cl [CBK067853] — higher, 103%
- CCCSc1nnc(-c2ccccc2NC(=O)CC)c(O)n1 [CBK265081] — higher, 92.8%
- Cc1ccc(C)c(OCCN(C)c2cc(C3CC(N)C3)nc(N)n2)c1 (centres unmarked) [CBK307695] — lower, 45.4%
- CCN(C(C)COC)S(=O)(=O)c1cccc(Cl)c1Cl (centres unmarked) [CBK305146] — higher, 98.4%
- N#Cc1ccccc1NC(=O)CN1CCCCCC1 [CBK270088] — higher, 87.8%
- Cc1cc(C)nc(NC2=NC(=O)CC(C(=O)O)N2c2ccc(Cl)cc2Cl)n1 (centres unmarked) [CBK286968] — higher, 94.5%
- Cc1nc(C)n(CCCNc2cc(C(C)C)nc3ccnn23)n1 [CBK307497] — lower, 79.7%
- Cc1nc(-c2ccc(CNC(=O)C(Cc3ccccc3)N3CCCC3)cc2)ccc1C(N)=O (centres unmarked) [CBK286017] — higher, 92.6%
- O=C(CN1C(=O)c2ccccc2C1=O)Nc1cccc2cccnc12 [CBK261320] — higher, 91.2%
- Cn1ccnc1CN1CCN(Cc2nccn2C)CC1 [CBK266206C] — higher, 98.7%
- CC1(C)OC(=O)CC1C(=O)N1CCCC(COc2ccccc2F)C1 (centres unmarked) [CBK282098] — higher, 100%
- COc1ccc(CN2CCN(c3ccc(F)cc3)CC2)cc1OCc1ccccc1 [CBK261894] — higher, 95%
- COc1cc(-c2nc(-c3ccc(Cl)cc3)c(-c3ccccc3)[nH]2)c([N+](=O)[O-])cc1OC [CBK264503] — higher, 98.9%
- COc1ccc2nc(C)c(CCC(=O)O)c(O)c2c1 [CBK286955] — higher, 98.8%
- O=c1[nH]c(SCc2n[nH]c(=S)n2-c2ccccc2)nc2sc3c(c12)CCCC3 [CBK300538] — higher, 118%
- Cc1cnn(C2CCN(C(=O)CC3OCCc4ccccc43)CC2)c1 (centres unmarked) [CBK304186] — higher, 93.6%
- Cc1nc(CNCc2c(C)nn(C)c2N(C)C)cs1 [CBK304808] — higher, 95.3%
- CC(C)OCC(=O)NC1CCCc2nc(N3CCC(CO)CC3)ncc21 (centres unmarked) [CBK307520] — higher, 94.5%
- CCOc1ccccc1OCc1nn2c(-c3ccncc3)nnc2s1 [CBK268535] — higher, 111%
- Cc1cc(NC(=O)CN(C)CCNC(=O)C2CCCC2)no1 [CBK305237] — lower, 84.9%
- COc1ccccc1Nc1nc(N)nc(CSc2nccn2C)n1 [CBK266710] — higher, 95%
- N#CCC(=O)Nc1ccc(F)c(Cl)c1 [CBK085905] — higher, 95.4%
- Cn1ccc(C2CCCCCN2S(=O)(=O)c2ccc3[nH]c(=O)[nH]c(=O)c3c2)n1 (centres unmarked) [CBK286407] — lower, 71.1%
- [O-][S+](c1ccc(Cl)c(Cl)c1)c1cc2c(N3CCCNCC3)nccc2s1 (centres unmarked) [CBK038304C] — lower, 71.2%
- O=C(NC(c1ccc(F)cc1)c1ccc2ccccc2n1)C1CCN(CCCN2CCOCC2)CC1 (centres unmarked) [CBK148118] — higher, 91.8%
- Cc1nn(-c2ccccc2)c(O)c1Cc1c(Cl)cccc1Cl [CBK067760] — higher, 98.1%
- NS(=O)(=O)c1ccc(NC(=O)CN2CCN(c3cccc(C(F)(F)F)c3)CC2)cc1 [CBK266180] — higher, 105%
- COc1ccc2cc3c(nc2c1)OC(=O)N(CC1CC1)C3 [CBK282432] — higher, 86.8%
- CC(C)Cn1c(-c2ccc(F)cc2)cnc1SC(C)C(=O)NC(N)=O (centres unmarked) [CBK295635] — higher, 91.9%
- Nc1cccc(-c2ccc(NCc3cc(F)c(F)c(F)c3)nc2)c1 [CBK036985] — higher, 97.2%
- Cc1ccc(C)c(C(=O)C2=C(O)C(=O)N(CCN(C)C)C2c2cccc(Cl)c2)c1 (centres unmarked) [CBK265495] — higher, 91.4%
- COc1ccc(CCCC(=O)Nc2ccc(N3CCNCC3)nc2)cc1OC [CBK028272T] — lower, 82.4%
- Cc1ccc(OCC(=O)NNC(=O)C2COc3ccccc3O2)cc1 (centres unmarked) [CBK263511] — higher, 95.4%
- CCn1c(C(O)c2ccc(OCc3ccccc3)cc2)nc2ccccc21 (centres unmarked) [CBK263458] — higher, 96.1%
- CC(CN1CCOCC1)NS(=O)(=O)c1cccc(C(=O)N2CCCC2)c1 (centres unmarked) [CBK307053] — higher, 107%
- Cc1ccc(Cl)cc1NC(=O)c1cc(NC(=O)C2CCCCC2C(=O)O)ccc1N1CCCCC1 (centres unmarked) [CBK268371] — higher, 87%
- C[C@H](NC(=O)C1CC(=O)N(c2ccc(F)cc2)C1)C(=O)N1CCC(C(=O)O)CC1 (some centres unmarked) [CBK286733] — lower, 79.7%
- CCCNC(=O)N1CCN2C(=O)c3cc(-c4ccccc4F)ccc3NC(=O)[C@@H]2C1 [CBK289595] — higher, 95.5%
- CCNC(=O)N1C[C@@H]2OCC(=O)N(Cc3cccnc3)[C@@H]2C1 [CBK289682] — higher, 109%
- Cc1ccccc1Oc1ccccc1NC(=O)CN1CCCCC1 [CBK015781C] — higher, 98.3%
- Fc1ccc(-c2ccc(N3CCN(c4ccncc4)CC3)nc2)cc1Cl [CBK036821] — higher, 111%
- C[C@@H]1CC(=O)CCC1NC(=O)c1ccccc1 (some centres unmarked) [CBK017832] — higher, 88.4%
- Cn1c(=O)c2c(nc(SCC(=O)O)n2C)n(C)c1=O [CBK262942] — higher, 88.3%
- CSCCC(NC(=O)C1CCC(C)CC1)C(=O)O (centres unmarked) [CBK286552] — higher, 87.5%
- CC(=O)Nc1cccc(-n2cc(-c3cccc(C(F)(F)F)c3)nn2)c1 [CBK112938] — higher, 91.2%
- Cc1cc(C)n(C(CC(=O)N2CCCCC2)C(=O)O)n1 (centres unmarked) [CBK286806] — higher, 85.6%
- Cc1cc(CNC(=O)c2cc3ccc(Cl)cc3[nH]2)[nH]n1 [CBK281391] — higher, 87.8%
- Cc1ccc(S(=O)(=O)Nc2ccccc2C(=O)O)cc1[N+](=O)[O-] [CBK042374] — lower, 84.5%
- COc1cc(F)cc(OC2CCNCC2)c1NC(=O)C1CCC1 [CBK045912T] — higher, 92.3%
- COc1ccccc1N1CCN(CC(CC(=O)Nc2ccccc2)C(=O)O)CC1 (centres unmarked) [CBK286766] — higher, 88.6%
- COc1ccc(NC(=O)c2c(NC(=O)CN3CCCC(C)C3)sc3c2CCC3)cc1 (centres unmarked) [CBK265061] — higher, 93.3%
- CC1=CC(C)C(=S)NC(C)=C1 (centres unmarked) [CBK022735] — higher, 91%
- O=C(COc1ccc(Cl)cc1)NCCc1ccc(S(=O)(=O)NC(=O)NC2CCCCC2)cc1 [CBK013261] — higher, 92.4%
- CC(C)CC(=O)N1CCC(c2nnc3n2CCCCC3)CC1 [CBK284629] — lower, 83.2%
- CCCn1c(SCC(=O)Nc2scc(-c3cccs3)c2C(=O)OCC)n[nH]c1=O [CBK296967] — higher, 94.5%
- N#CCCCN1CCC(Oc2nccnc2OCc2cccc(C(F)(F)F)c2F)CC1 [CBK153646] — higher, 100%
- CN(C)Cc1cc(-c2ccccc2F)nn1CCNC(=O)C1CCC1 [CBK283471] — higher, 93.1%
- COC(=O)c1c(C(C)(C)C)c(O)c2ccoc2c1OC [CBK007577] — higher, 94.2%
- CC(C)C(=O)Nc1ccc(-c2ccccc2)c2ccccc12 [CBK083731] — higher, 101%
- S=C(Nc1ccccc1)c1ccccc1 [CBK005397] — higher, 100%
- OC[C@H]1O[C@@H](n2cnc3c(Cl)nccc32)C[C@H]1O [CBK201273] — higher, 88.5%
- N#Cc1cn(S(=O)(=O)c2cccc(C(F)(F)F)c2)nc1N [CBK067225] — higher, 92.6%
- Cc1occc1-c1nnc(NCc2cnn(C)c2C)o1 [CBK304819] — higher, 92.3%
- CN(C(=S)NCc1ccccc1)C1CC[C@@]2(c3ccc(F)cc3)CCN(C)[C@H]2C1 (some centres unmarked) [CBK003500C] — higher, 90.1%
- CN(Cc1nccs1)C(=O)NC1CCN(Cc2cccc(O)c2)CC1 [CBK307657] — higher, 96.7%
- O=C(NCCc1cccs1)Nc1ccc2c(c1)C(F)(F)OC(F)(F)O2 [CBK045255] — higher, 98.2%
- NC(=O)c1cccc(-c2nc(-c3cc4ccccc4o3)cnc2N)c1 [CBK063996] — higher, 94.5%
- CC(C)[C@H](CO)Nc1cncc(-c2cccc3ccccc23)n1 [CBK065501] — higher, 85.9%
- CC(=O)N[C@@H](Cc1c[nH]cn1)C(=O)Nc1cc2ccccc2c(Br)n1 [CBK063302] — higher, 91.3%
- O=C(NCc1ccco1)c1cc(-c2ccc3[nH]ccc3c2)cnc1NCCOc1ccccc1 [CBK106388] — higher, 89.9%
- CC(=O)Nc1cccc(-c2cnc3[nH]c(=O)n([C@H](C)c4ccccc4)c3n2)c1 [CBK064188] — higher, 95.9%
- Cc1ccc(NC(=O)c2cc([N+](=O)[O-])ccc2NCCN2C(=O)c3ccccc3C2=O)cc1 [CBK267159] — higher, 87.5%
- O=C(Nc1ccccc1C(F)(F)F)N(Cc1ccccc1C(F)(F)F)CC1CCNCC1 [CBK049744] — higher, 112%

Same assay, conditions: human, hela cells, % viability, bulk resorufin, single well

c1cc2c(cc1-c1ccc3c(c1)COC1(CCNCC1)O3)CCO2 [CBK060920] gave a viability at 28.5 h, 10 µM of 108%.
